Measurements from the supplement of paper PMC8882468.

Columns and labels:
Assay in all cases: CTG-3D luminescence at 96 h relative to day-0 seeding control (ratio to day 0); higher = more growth / less cytotoxicity; PDxO 3D drug screen (set 2), 96 h, CTG-3D normalised to day-0 seeding control.
HCI-003.E2 = test system: HCI-003.E2 (organoid from an ER-positive breast cancer xenograft)
HCI-010 = test system: HCI-010 (organoid from a breast cancer xenograft)
HCI-011.E2 = test system: HCI-011.E2 (organoid from an ER-positive breast cancer xenograft)
HCI-012 = test system: HCI-012 (organoid from a breast cancer xenograft)
HCI-027 = test system: HCI-027 (organoid from a triple-negative breast cancer xenograft)

CCOc1ccn(-c2ccc(F)cc2)c(=O)c1C(=O)Nc1ccc(Oc2ccnc(N)c2Cl)c(F)c1 [ASLAN002]
CTG-3D luminescence at 96 h
Conditions | 12.5 pM | 0.00025 µM | 0.005 µM | 0.1 µM | 1 µM | 10 µM | 100 µM | 625 fM
HCI-003.E2 | 2.68 | 2.58 | 2.76 | 2.78 | 2.47 | 1.97 | 1.09 | 2.78
HCI-011.E2 | 1.61 | 1.78 | 1.28 | 1.76 | 1.41 | 2.11 | 1.39 | 2.23

CTG-3D luminescence at 96 h
Conditions | 12.5 pM | 0.00025 µM | 0.005 µM | 0.1 µM | 1 µM | 10 µM | 100 µM | 625 fM
HCI-010, days in culture: 79 | 1.78 | 1.68 | 1.94 | 2.05 | 1.8 | 1.55 | 0.742 | 1.97
HCI-010, days in culture: 86 | 2.24 | 2.35 | 2.82 | 2.77 | 2.48 | 2.23 | 0.77 | 2.51
HCI-010, days in culture: 102 | 1.1 | 1.26 | 1.21 | 1.48 | 1.41 | 1.14 | 0.252 | 0.941
HCI-010, days in culture: 164 | 1.62 | 1.61 | 1.72 | 1.74 | 1.66 | 1.3 | 0.248 | 1.36
HCI-011.E2, days in culture: 74 | 2.83 | 2.42 | 2.58 | 2.8 | 2.58 | 2.52 | 1.66 | 2.28
HCI-012, days in culture: 214 | 1.99 | 2.84 | 1.41 | 1.72 | 1.55 | 2.81 | 0.653 | 2.47
HCI-012, days in culture: 243 | 1.95 | 2.84 | 1.9 | 2.45 | 2.19 | 3.71 | 1.7 | 2.43
HCI-012, days in culture: 256 | 1.93 | 1.9 | 1.8 | 2.77 | 1.71 | 1.78 | 1.29 | 2.4
HCI-012, days in culture: 284 | 1.86 | 2.58 | 1.82 | 2.49 | 2.18 | 2.98 | 1.4 | 2.81
HCI-027, days in culture: 145 | 1.36 | 2.38 | 1.99 | 2.27 | 1.53 | 1.16 | 0.692 | 1.71
HCI-027, days in culture: 158 | 2.07 | 1.82 | 2.16 | 2.7 | 1.65 | 2.11 | 1.35 | 4.78
HCI-027, days in culture: 164 | 1.59 | 1.98 | 3.29 | 1.48 | 1.84 | 1.29 | 0.787 | 1.91
HCI-027, days in culture: 176 | 3.7 | 2.85 | 1.77 | 1.65 | 2.11 | 1.09 | 0.699 | 2.39
HCI-027, days in culture: 186 | 2 | 1.38 | 1.53 | 2.45 | 0.755 | 0.892 | 0.737 | 2

C[C@@H](Nc1cc(F)cc(F)c1)c1cc(C(=O)N(C)C)cc2c(=O)cc(N3CCOCC3)oc12 [AZD-8186]
CTG-3D luminescence at 96 h
Conditions | 12.5 pM | 0.00025 µM | 0.005 µM | 0.1 µM | 1 µM | 10 µM | 100 µM | 625 fM
HCI-003.E2 | 2.53 | 2.56 | 2.18 | 2.38 | 2.13 | 1.28 | 0.0452 | 2.58
HCI-011.E2 | 1.45 | 1.9 | 1.54 | 1.81 | 1.47 | 1.01 | 0.293 | 2.13

CTG-3D luminescence at 96 h
Conditions | 12.5 pM | 0.00025 µM | 0.005 µM | 0.1 µM | 1 µM | 10 µM | 100 µM | 625 fM
HCI-010, days in culture: 79 | 1.88 | 1.85 | 1.94 | 1.98 | 1.58 | 1.1 | 0.138 | 2.14
HCI-010, days in culture: 86 | 2.26 | 2.36 | 2.34 | 2.1 | 1.99 | 1.67 | 0.321 | 2.16
HCI-010, days in culture: 102 | 1.18 | 0.973 | 1.18 | 1.19 | 1.19 | 0.856 | 0.0314 | 1.26
HCI-010, days in culture: 164 | 1.6 | 1.49 | 1.64 | 1.37 | 1.4 | 1.02 | 0.0763 | 1.52
HCI-011.E2, days in culture: 74 | 2.16 | 1.88 | 1.79 | 2.21 | 1.49 | 1.12 | 0.136 | 2.4
HCI-012, days in culture: 214 | 3.16 | 3.58 | 2.36 | 2.15 | 1.61 | 1.53 | 0.299 | 3
HCI-012, days in culture: 243 | 1.81 | 2.44 | 1.8 | 2.35 | 1.56 | 1.4 | 0.468 | 2.52
HCI-012, days in culture: 256 | 2.2 | 2.24 | 2.12 | 3.26 | 1.35 | 0.936 | 0.409 | 2.45
HCI-012, days in culture: 284 | 1.94 | 2.57 | 2.11 | 2.5 | 1.45 | 2.64 | 0.535 | 2.65
HCI-027, days in culture: 145 | 1.31 | 2.65 | 1.81 | 1.94 | 0.882 | 1.12 | 0.387 | 1.74
HCI-027, days in culture: 158 | 0.987 | 2.74 | 2.32 | 1.39 | 1.24 | 1.87 | 0.581 | 4.36
HCI-027, days in culture: 164 | 1.52 | 0.955 | 2.29 | 2.94 | 1.28 | 1.36 | 0.618 | 1.46
HCI-027, days in culture: 176 | 2.9 | 2.55 | 1.1 | 1.9 | 1.15 | 0.842 | 0.201 | 1.89
HCI-027, days in culture: 186 | 1.9 | 2.1 | 2.54 | 1.7 | 0.519 | 1.46 | 0.286 | 2.6

Cc1c(CN2CCN(C(=O)[C@H](C)O)CC2)sc2c(N3CCOCC3)nc(-c3cnc(N)nc3)nc12 [apitolisib]
CTG-3D luminescence at 96 h
Conditions | 12.5 pM | 0.00025 µM | 0.005 µM | 0.1 µM | 1 µM | 10 µM | 100 µM | 625 fM
HCI-003.E2 | 2.46 | 2.27 | 2.31 | 1.31 | 0.0639 | 0.0361 | 0.0424 | 2.82
HCI-011.E2 | 1.62 | 1.71 | 1.3004 | 0.978 | 0.232 | 0.17 | 0.377 | 1.89

CTG-3D luminescence at 96 h
Conditions | 12.5 pM | 0.00025 µM | 0.005 µM | 0.1 µM | 1 µM | 10 µM | 100 µM | 625 fM
HCI-010, days in culture: 79 | 1.94 | 1.83 | 1.96 | 1.68 | 0.503 | 0.107 | 0.0163 | 2.13
HCI-010, days in culture: 86 | 2.03 | 2.34 | 2.49 | 1.94 | 0.554 | 0.242 | 0.088 | 2.27
HCI-010, days in culture: 102 | 1.17 | 1.35 | 1.21 | 0.954 | 0.286 | 0.0291 | 0.0044 | 0.944
HCI-010, days in culture: 164 | 1.71 | 1.39 | 1.57 | 1.27 | 0.641 | 0.265 | 0.0363 | 1.33
HCI-011.E2, days in culture: 74 | 2.37 | 2.08 | 1.85 | 1.24 | 0.177 | 0.0892 | 0.218 | 2.23
HCI-012, days in culture: 214 | 3.46 | 3.38 | 1.52 | 1.74 | 0.672 | 0.176 | 0.0363 | 3.26
HCI-012, days in culture: 243 | 2.34 | 2.6 | 2.13 | 1.48 | 0.554 | 0.118 | 0.0299 | 2.51
HCI-012, days in culture: 256 | 2.08 | 2.2 | 2.08 | 2.67 | 0.805 | 0.1 | 0.0191 | 2.05
HCI-012, days in culture: 284 | 2.16 | 2.93 | 1.47 | 1.97 | 0.681 | 0.102 | 0.0089 | 3.29
HCI-027, days in culture: 145 | 1.36 | 2 | 1.85 | 1.14 | 0.404 | 0.297 | 0.262 | 1.64
HCI-027, days in culture: 158 | 2.21 | 2.37 | 2.99 | 2.07 | 0.609 | 1.12 | 0.342 | 6.72
HCI-027, days in culture: 164 | 1.35 | 2.18 | 2.6 | 1.92 | 0.894 | 0.441 | 0.389 | 1.48
HCI-027, days in culture: 176 | 3.68 | 2.63 | 1.06 | 1.66 | 0.9 | 0.431 | 0.271 | 1.29
HCI-027, days in culture: 186 | 1.37 | 1.93 | 1.13 | 0.973 | 0.319 | 0.706 | 0.112 | 2.34

Nc1cc(C(F)(F)F)c(-c2cc(N3CCOCC3)nc(N3CCOCC3)n2)cn1 [buparlisib]
CTG-3D luminescence at 96 h
Conditions | 12.5 pM | 0.00025 µM | 0.005 µM | 0.1 µM | 1 µM | 10 µM | 100 µM | 625 fM
HCI-003.E2 | 2.55 | 2.29 | 2.6 | 2.53 | 0.705 | 0.037 | 0.0142 | 2.71
HCI-011.E2 | 1.59 | 1.75 | 1.23 | 1.38 | 0.772 | 0.191 | 0.0881 | 2.09

CTG-3D luminescence at 96 h
Conditions | 12.5 pM | 0.00025 µM | 0.005 µM | 0.1 µM | 1 µM | 10 µM | 100 µM | 625 fM
HCI-010, days in culture: 79 | 1.69 | 1.83 | 1.84 | 1.83 | 1.02 | 0.456 | 0.0891 | 2
HCI-010, days in culture: 86 | 2 | 2.29 | 2.49 | 2.33 | 1.36 | 0.525 | 0.146 | 2.19
HCI-010, days in culture: 102 | 1.08 | 1.24 | 1.36 | 1.38 | 0.738 | 0.309 | 0.0336 | 0.982
HCI-010, days in culture: 164 | 1.62 | 1.52 | 1.57 | 1.65 | 1.04 | 0.556 | 0.11 | 1.37
HCI-011.E2, days in culture: 74 | 2.23 | 1.9 | 1.83 | 2.23 | 0.711 | 0.135 | 0.0559 | 2.32
HCI-012, days in culture: 214 | 1.75 | 3.34 | 1.48 | 2.51 | 1.02 | 0.314 | 0.0491 | 2.11
HCI-012, days in culture: 243 | 1.8 | 2.97 | 2.35 | 2.4 | 1.59 | 0.242 | 0.0324 | 2.37
HCI-012, days in culture: 256 | 2.19 | 2.45 | 2.12 | 2.99 | 1.05 | 0.138 | 0.0266 | 1.97
HCI-012, days in culture: 284 | 1.86 | 2.37 | 1.96 | 2.4 | 1.3 | 0.282 | 0.0339 | 3.54
HCI-027, days in culture: 145 | 1.54 | 1.52 | 1.25 | 1.43 | 0.692 | 0.328 | 0.299 | 2.3
HCI-027, days in culture: 158 | 2.38 | 2.8 | 2.6 | 2.57 | 0.949 | 0.818 | 0.172 | 2.61
HCI-027, days in culture: 164 | 1.85 | 1.65 | 1.59 | 2.16 | 0.625 | 0.478 | 0.612 | 1.57
HCI-027, days in culture: 176 | 4.08 | 3.24 | 0.833 | 1.54 | 0.26 | 0.384 | 0.144 | 2.31
HCI-027, days in culture: 186 | 1.86 | 1.61 | 2.44 | 1.65 | 0.528 | 0.223 | 0.169 | 2.21
